Data on five compounds can be found in patent US20260076372A1, “SPRAYABLE ANTIFUNGAL COMPOSITION FOR USE IN THE FIELD OF AGRICULTURE, AND ASSOCIATED METHOD AND USE” (GAIAGO, priority 2022, published 2026).

Holding throughout (type): cell-based
Test [1] has as its system Septoria tritici (Zymoseptoria tritici). The experiment in a line: in vitro 96-well micro-titration test on Septoria tritici / Zymoseptoria tritici. The note with it: for EC95 (%): Z. tritici, Table 23, ingredient alone in water.
Another test relates to Alternaria solani. The experiment in a line: in vitro 96-well micro-titration test on Alternaria solani spores. The note with it: for EC95 (%): A. solani, Table 22, ingredient alone in water.
The next test deals with Plasmopara viticola. The test is described as follows: in vitro antifungal action of single ingredients on Plasmopara viticola. The text has this:
In Vitro Results Showing the Syngergistic Action of Yucca Juice with the Other Compounds of the Composition According to the Invention on A. solani, Z. tritici, and Plasmopara viticola,
The following tables show in vitro the synergistic antifungal action between yucca juice and the other compounds of the composition of the invention on various pathogens. The concentrations given are as a mass %. The solutions tested as aqueous solutions.
Mo denotes sodium molybdate, Bo denotes boron ethanolamine.

The mark [2] stands for this setting: Concentration 0.05% mass of the stated aqueous solution.

The structures appear in SMILES notation. Where only a bound is given, the exact number is not on record here.

Turning to `O=S(=O)([O-])[O-].[Cu+2]` [Cu 1.5%], the “inhibition of Z. tritici, ingredient alone in water” value (shortened to “inhibition of Z. tritici”) in test [1] (Concentration 0.05%) worked out at 11.9%; in test [1] (Concentration 0.50%), 17.3%; in test [1] (Concentration 1.00%), 22.1%; in test [1] (Concentration 2.00%), 23.6%; in test [1] (Concentration 3.00%), 20.9%; in test [1] (Concentration 6.00%) it was 24.1%. For the same compound, the “inhibition of Z. tritici” value in test [1] (Concentration 10.00%) is on record as 28.2%. Also, the “EC95 (%)” value (in test [1]; in the test with Alternaria solani) was >10% throughout. The “inhibition of A. solani, ingredient alone in water” value (“inhibition of A. solani” below) is −2.8% in the test on Alternaria solani (setting [2]); −1.4% with Alternaria solani (Concentration 0.50%); −1.9% with Alternaria solani (Concentration 1.00%); −1.8% in the test with Alternaria solani (Concentration 2.00%); −4.9% in the test with Alternaria solani (Concentration 3.00%); −1.8% with Alternaria solani (Concentration 6.00%). Moreover, the “inhibition of A. solani” value in the test on Alternaria solani (Concentration 10.00%) is reported as −2.9%.

As to `O=S(=O)([O-])[O-].[Fe+2]` [Fe 4%], the “inhibition of Z. tritici” value in test [1] (Concentration 0.05%) is 9.8%; in test [1] (Concentration 0.50%), 37.1%; in test [1] (Concentration 1.00%), 38.8%; in test [1] (Concentration 2.00%), 54.9%; in test [1] (Concentration 3.00%) it was 100.0%; in test [1] (Concentration 6.00%), 100.0%. The “inhibition of Z. tritici” value in test [1] (Concentration 10.00%) was determined as 100.0%. In addition, the results for the “EC95 (%)” value (in test [1]; in the test with Alternaria solani) were 2.86% and 2.3%, respectively. In addition, the “efficacy against Z. tritici (glume blotch) in vitro” value in test [1] (dose of 0.5%) is ~37%. Moreover, the “inhibition of A. solani” value in the test on Alternaria solani (setting [2]) was −4.7%; in the test with Alternaria solani (Concentration 0.50%) it was −4.3%; with Alternaria solani (Concentration 1.00%), −0.4%; in the test on Alternaria solani (Concentration 2.00%) it was 49.6%; in the test on Alternaria solani (Concentration 3.00%) it was 100.0%; in the test on Alternaria solani (Concentration 6.00%) it was 100.0%. Besides, the “inhibition of A. solani” value with Alternaria solani (Concentration 10.00%) came to 100.0%.

For `[Cl-].[K+]` [KCl 0.24%], the “inhibition of Z. tritici” value was 4.7% in test [1] (Concentration 0.05%); 2.2% in test [1] (Concentration 0.50%); 1.4% in test [1] (Concentration 1.00%); 0.1% in test [1] (Concentration 2.00%); 0.3% in test [1] (Concentration 3.00%); 7.9% in test [1] (Concentration 6.00%). In test [1] (Concentration 10.00%), the “inhibition of Z. tritici” value came out at 3.8%. For the same compound, the “EC95 (%)” value (in test [1]; in the test with Alternaria solani) was >10% each time. Also, the “in vitro activity against Plasmopara viticola, ingredient alone in water” value (“in vitro activity” for short) came to 10.83% in the test with Plasmopara viticola (Concentration 0.05%); 51.35% in the test with Plasmopara viticola (Concentration 0.50%); 69.10% with Plasmopara viticola (Concentration 1.00%); 75.81% in the test on Plasmopara viticola (Concentration 2.00%); 83.20% in the test on Plasmopara viticola (Concentration 3.00%); 94.91% in the test with Plasmopara viticola (Concentration 6.00%). In the test on Plasmopara viticola (Concentration 10.00%), the “in vitro activity” value is reported as 97.43%. The “inhibition of A. solani” value in the test on Alternaria solani (setting [2]) was 1.2%; with Alternaria solani (Concentration 0.50%), −3.6%; in the test on Alternaria solani (Concentration 1.00%), −3.9%; with Alternaria solani (Concentration 2.00%), −8.9%; in the test with Alternaria solani (Concentration 3.00%), −1.3%; in the test on Alternaria solani (Concentration 6.00%), −1.2%. In addition, in the test on Alternaria solani (Concentration 10.00%), the “inhibition of A. solani” value is on record as −2.9%.

Regarding `O=S(=O)([O-])[O-].[Mg+2]` [Mg 0.5%], the “inhibition of Z. tritici” value is 0.7% in test [1] (Concentration 0.05%); 0.9% in test [1] (Concentration 0.50%); 2.3% in test [1] (Concentration 1.00%); −2.9% in test [1] (Concentration 2.00%); −0.1% in test [1] (Concentration 3.00%); 11.3% in test [1] (Concentration 6.00%). Also, the “EC95 (%)” value (in test [1]; with Alternaria solani) was >10% throughout. Further, the “in vitro activity” value with Plasmopara viticola (Concentration 0.05%) came out at 13.88%; in the test on Plasmopara viticola (Concentration 0.50%), 43.93%; in the test with Plasmopara viticola (Concentration 1.00%), 53.33%; in the test on Plasmopara viticola (Concentration 2.00%), 69.80%; in the test on Plasmopara viticola (Concentration 3.00%), 76.51%; in the test with Plasmopara viticola (Concentration 6.00%), 91.75%. The “in vitro activity” value in the test on Plasmopara viticola (Concentration 10.00%) came out at 95.94%. Moreover, the “inhibition of A. solani” value in the test on Alternaria solani (setting [2]) was −1.2%; in the test with Alternaria solani (Concentration 0.50%), −8.0%; with Alternaria solani (Concentration 1.00%) it was −2.2%; with Alternaria solani (Concentration 2.00%) it was −1.8%; with Alternaria solani (Concentration 3.00%), −1.3%; in the test with Alternaria solani (Concentration 6.00%), −2.5%. In the test on Alternaria solani (Concentration 10.00%), the “inhibition of A. solani” value is reported as −2.4%.

`O=S(=O)([O-])[O-].[Mn+2]` [Mn 3.7%]: the “inhibition of Z. tritici” value in test [1] (Concentration 0.05%) stood at 12.9%; in test [1] (Concentration 0.50%), 13.8%; in test [1] (Concentration 1.00%), 12.9%; in test [1] (Concentration 2.00%), 18.6%; in test [1] (Concentration 3.00%), 20.0%; in test [1] (Concentration 6.00%) it was 17.0%. Besides, the “inhibition of Z. tritici” value in test [1] (Concentration 10.00%) is 23.1%. The “EC95 (%)” value (in test [1]; with Alternaria solani) was >10% throughout. In addition, the “in vitro activity” value in the test with Plasmopara viticola (Concentration 0.05%) is reported as 31.02%; in the test on Plasmopara viticola (Concentration 0.50%), 87.05%; with Plasmopara viticola (Concentration 1.00%) it was 94.13%; in the test with Plasmopara viticola (Concentration 2.00%) it was 97.24%; in the test on Plasmopara viticola (Concentration 3.00%), 97.70%; with Plasmopara viticola (Concentration 6.00%) it was 97.72%. Further, the “in vitro activity” value with Plasmopara viticola (Concentration 10.00%) was determined as 97.79%. Besides, the “inhibition of A. solani” value is reported as −2.3% with Alternaria solani (setting [2]); 0.0% in the test with Alternaria solani (Concentration 0.50%); 12.8% with Alternaria solani (Concentration 1.00%); 15.1% with Alternaria solani (Concentration 2.00%); 17.6% with Alternaria solani (Concentration 3.00%); 38.8% with Alternaria solani (Concentration 6.00%). For the same compound, the “inhibition of A. solani” value with Alternaria solani (Concentration 10.00%) is 48.4%.
